# Assay results reported in patent US20100063583A1, “USE OF SOLUBLE EPOXIDE HYDROLASE INHIBITORS IN THE TREATMENT OF INFLAMMATORY VASCULAR DISEASES” (Arete Therapeutics, Inc., priority 2008, published 2010).
# Entries after “also recorded” stand apart in the source; their conditions may differ.
# Key:
# [1] = tested on: angiotensin II infused apolipoprotein E deficient mice; assay: Atherosclerotic lesion development in aortic arch and non-ligated right carotid artery of Ang II infused apoE deficient mice; assay type: in vivo; conditions: vs vehicle
# Protocol: (§1) Six-month old apolipoprotein E deficient mice were chronically infused with angiotensin II (1.44 mg/Kg/day) for 4 weeks to induce an abdominal aortic aneurysm (AAA) and accelerate atherosclerosis development. The mice were treated with Compound 2 (1.5 g/L in drinking water) or vehicle for 4 weeks. […] These effects were associated with a reduction of serum lipid, IL-6, murine IL-8 KC and IL-1α, and down-regulation of gene expressions of ICAM-1, VCAM-1 and IL-6 in the arterial wall. […] The attendant down-regulation of inflammatory mediators and lipid lowering effects may both contribute to the observed vascular protective effects.
# (§2) Six-month old male apoE deficient mice (The Jackson Laboratory, Bar Harbor, Me.) fed a normal chow (Harlan Teklad diet #2018, Harlan Laboratories, Inc., Indianapolis, Ind.) were used in this study. Baseline blood pressure and body weight were measured before surgery. Animals were anesthetized by inhalation of 2% isoflurane. The left common carotid artery was carefully dissected via a midline neck incision under a dissecting microscope, and then ligated with a 6-0 silk ligature just proximal to its bifurcation. At the time of ligation, a minipump (model 2004, Durect Corp., Cupertino, Calif.) filled with Ang II (1.44 mg/Kg/day, Phoenix Pharmaceuticals, Burlingame, Calif.) was implanted subcutaneously. The animals were randomly divided into 2 groups; Vehicle: drinking water containing 5% hydroxypropyl-beta-cyclodextrin (HPBCD) or Compound 2 in drinking water containing 1.5 mg/mL Compound 2 in 5% HPBCD. Each experimental group included 11 animals. After 4 weeks of Ang II infusion, systolic blood pressure was measured in conscious mice using a tail-cuff system (Kent Scientific Corporation, Torrington, Conn.), and the animals were euthanized. […]
# [2] = tested on: angiotensin II infused apolipoprotein E deficient mice; assay: Angiotensin II-induced abdominal aortic aneurysm formation in apoE deficient mice; assay type: in vivo
# Protocol: as §1
# (§3) Six-month old male apoE deficient mice (The Jackson Laboratory, Bar Harbor, Me.) fed a normal chow (Harlan Teklad diet #2018, Harlan Laboratories, Inc., Indianapolis, Ind.) were used in this study. Baseline blood pressure and body weight were measured before surgery. Animals were anesthetized by inhalation of 2% isoflurane. The left common carotid artery was carefully dissected via a midline neck incision under a dissecting microscope, and then ligated with a 6-0 silk ligature just proximal to its bifurcation. At the time of ligation, a minipump (model 2004, Durect Corp., Cupertino, Calif.) filled with Ang II (1.44 mg/Kg/day, Phoenix Pharmaceuticals, Burlingame, Calif.) was implanted subcutaneously. The animals were randomly divided into 2 groups; Vehicle: drinking water containing 5% hydroxypropyl-beta-cyclodextrin (HPBCD) or Compound 2 in drinking water containing 1.5 mg/mL Compound 2 in 5% HPBCD. Each experimental group included 11 animals. After 4 weeks of Ang II infusion, systolic blood pressure was measured in conscious mice using a tail-cuff system (Kent Scientific Corporation, Torrington, Conn.), and the animals were euthanized. Blood samples were collected via cardiac puncture for the measurement of a serum cholesterol profile (IDEXX Veterinary Services, West Sacramento, Calif.) and serum inflammatory panel (Murigenics, Hayward, Calif.) using a mouse cytokine/chemokine panel kit (Millipore, Billerica, Mass.), and tissues were removed for analysis (see below).
# Chronic infusion of Ang II induced aneurysm formation in the abdominal aorta in 7 of 11 (64%) control apoE deficient mice. Treatment with Compound 2 reduced the incidence of aneurysm formation to 18% (2 of 11). […] There was no type VI aneurysm found in this study.
# There were foci of acute hemorrhage present in the intima. The intima was occasionally disrupted by plaques of Mac-3-positive foam cells on the luminal side of the internal elastic lamina. […] The thickness of the media was increased by extracellular matrix depositing between smooth muscle bundles and stained with trichrome as collagen. Elastin fibers in the media were discontinuous and irregularly oriented. The adventitia was markedly thickened by extracellular matrix that was predominately collagen. There was a modest increase in adventitial cellularity including fibroblasts and Mac-3-positive mononuclear cells. […] These vessels did have medial changes including collagen deposition and some increase in elastin fibers, but the internal elastic lamina generally remained intact and retained a distinctive media of smooth muscle.
# [3] = tested on: angiotensin II infused apolipoprotein E deficient mice; assay: Ligation-induced vascular remodeling in the left carotid artery; assay type: in vivo
# Protocol: as §2
# Ligation of the left carotid arteries for four weeks induced vascular remodeling, including neointima formation and adventitial proliferation, leading to expansive remodeling as measured by enlargement of vessel diameter. […]
# [4] = tested on: VCAM-1, ICAM-1, IL-6, IL-1α and PPARs gene expression in the ascending aortic tissue; assay: Expression of pro-inflammatory genes in ascending aortic tissue; assay type: in vivo, mice; conditions: vs vehicle
# Protocol: as §3
# (§4) Using the animal model as reported in Martin-McNulty B, et al., 17 Beta-estradiol attenuates development of angiotensin II-induced aortic abdominal aneurysm in apolipoprotein E-deficient mice. Arterioscler Thromb Vasc Biol. 2003; 23(9):1627-1632 and Tham D M, et al., Angiotensin II is associated with activation of NF-kappaB-mediated genes and downregulation of PPARs. Physiol Genomics.
# [5] = tested on: circulating IL-6, murine IL-8-KC, IL-1α, serum lipid; assay: Serum inflammatory panel and serum lipid in Ang II infused apoE deficient mice; assay type: in vivo
# Protocol: as §3, §4
# [6] = ascending aortic tissue / arterial wall
smiles,measurement,setting,value
"O=C(Nc1ccc(OC(F)(F)F)cc1)NC1CCN(C(=O)c2cccnc2)CC1 [Compound 2, 1-(1-nicotinoylpiperidin-4-yl)-3-(4-(trifluoromethoxy)phenyl)urea]",atherosclerotic lesion area (overall),"[1]; 1.5 g/L in drinking water, 4 weeks Ang II infusion",significantly reduced
same,atherosclerotic lesion size/area in the aortic arch,[1]; 4 weeks,significantly reduced
same,atherosclerotic lesion size/area in the carotid artery,"[1]; non-ligated right carotid artery, 4 weeks",significantly reduced
same,average outer diameter of the suprarenal aorta,"[2]; 1.5 mg/mL in drinking water, 4 weeks, vs vehicle group",significantly smaller
same,"AAA formation (rate), effect in words","[2]; 1.5 g/L in drinking water, 4 weeks Ang II infusion, vs vehicle",significantly reduced; also recorded: partially prevented
same,incidence of aneurysm formation,"[2]; Compound 2 1.5 mg/mL in drinking water (5% HPBCD), 4 weeks Ang II 1.44 mg/Kg/day, 2 of 11 mice, vehicle 64%",18%
same,aneurysm severity measured by category score,"[2]; mice that developed aneurysm, vehicle group majority type III",majority with type 0 and I
same,adventitia thickness (histology),"[2]; vs vehicle group (markedly thickened), 4 weeks",relatively thin
same,intimal plaques in aorta (histological staining),"[2]; vs vehicle group, 4 weeks",fewer intimal plaques
same,macrophage and iron accumulation in the adventitia,"[2]; vs vehicle group, 4 weeks",less macrophage and no iron accumulation
same,"macrophage and iron accumulation in the intima (Mac-3, Prussian blue)","[2]; vs vehicle group, 4 weeks",no evidence of macrophage and iron accumulation
same,average diameter of the ligated carotid arteries,"[3]; Compound 2 vs vehicle group, four weeks",not significantly different
same,"ligation-induced vascular remodeling (neointima formation, adventitial proliferation, expansive remodeling)",[3]; left carotid artery ligated four weeks,not affected
same,ICAM-1 gene expression,[4]; [6],down-regulation; also recorded: significantly reduced
same,IL-6 gene expression,[4]; [6],down-regulation; also recorded: significantly reduced
same,VCAM-1 gene expression,[4]; [6],down-regulation; also recorded: significantly reduced
same,IL-1α gene expression,[4]; ascending aortic tissue,did not significantly affect
same,PPARs gene expression,[4]; ascending aortic tissue,did not significantly affect
same,serum lipid,[5]; 4 weeks treatment,reduction
same,circulating protein level of IL-6,[5]; vs vehicle group,reduction; also recorded: significantly lower
same,circulating protein level of murine IL-8-KC,[5]; vs vehicle group,reduction; also recorded: significantly lower
same,serum IL-1α,[5]; vs vehicle group,reduction; also recorded: reduced
